“And” between values parts separate entries of the source, which are not always exact repeats. Identical values can stand only once. Inconclusive results and toxic doses are left out.
System: P388 leukemia ip, CD2F1 mice, survival T/C
Test: NCI In Vivo Anticancer Drug Screen. Data for tumor model P388 Leukemia (intraperitoneal) in CD2F1 (CDF1) mice
Conditions: endpoint: median survival time, higher = longer survival
Procedure, shortened: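 Mice carrying the transplanted tumor received test compound or vehicle. Survival was recorded in each group, and the value is the treated-group measurement divided by that of the vehicle-treated control group.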

[1] = dose: 12.5 mg/kg/injection, schedule: Q01DX005 (ip), vehicle: Klucel (hydroxypropylcellulose) (HPC)
[2] = dose: 25.0 mg/kg/injection, schedule: Q01DX005 (ip), vehicle: Klucel (hydroxypropylcellulose) (HPC)
[3] = dose: 50.0 mg/kg/injection, schedule: Q01DX005 (ip), vehicle: Klucel (hydroxypropylcellulose) (HPC)
[4] = dose: 50.0 mg/kg/injection, schedule: Q01DX009 (ip), vehicle: saline
[5] = dose: 60.0 mg/kg/injection, schedule: Q01DX005 (ip), vehicle: saline with Tween-80
[6] = dose: 120.0 mg/kg/injection, schedule: Q01DX005 (ip), vehicle: saline with Tween-80
[7] = dose: 240.0 mg/kg/injection, schedule: Q01DX005 (ip), vehicle: saline with Tween-80
[8] = dose: 100.0 mg/kg/injection, schedule: Q01DX005 (ip), vehicle: Klucel (hydroxypropylcellulose) (HPC)
[9] = dose: 200.0 mg/kg/injection, schedule: Q01DX005 (ip), vehicle: Klucel (hydroxypropylcellulose) (HPC)
[10] = dose: 12.5 mg/kg/injection, schedule: Q01DX009 (ip), vehicle: saline with Tween-80
[11] = dose: 50.0 mg/kg/injection, schedule: Q01DX009 (ip), vehicle: saline with Tween-80
[12] = dose: 100.0 mg/kg/injection, schedule: Q01DX009 (ip), vehicle: saline with Tween-80
[13] = dose: 200.0 mg/kg/injection, schedule: Q01DX009 (ip), vehicle: saline with Tween-80
[14] = dose: 100.0 mg/kg/injection, schedule: Q04DX003 (ip), vehicle: Klucel (hydroxypropylcellulose) (HPC)
[15] = dose: 200.0 mg/kg/injection, schedule: Q04DX003 (ip), vehicle: Klucel (hydroxypropylcellulose) (HPC)

CC1C2CCC3C4CC=C5CC(N(C)C)CCC5(C)C4CCC32CN1C (configuration not stated)
T/C [1]: 105 % of control
T/C (dose: 12.5 mg/kg/injection, schedule: Q01DX005 (ip), vehicle: saline): 94 % of control
T/C [2]: 105 % of control
T/C (dose: 25.0 mg/kg/injection, schedule: Q01DX005 (ip), vehicle: saline): 94 % of control
T/C (dose: 25.0 mg/kg/injection, schedule: Q01DX009 (ip), vehicle: saline): 105 % of control
T/C [3]: 103 % of control and 113 % of control
T/C (dose: 50.0 mg/kg/injection, schedule: Q01DX005 (ip), vehicle: saline): 106 % of control and 107 % of control
T/C [4]: 88 % of control

Nc1ncnc2c1ncn2C1OC(CO)C(N)C1O (configuration not stated)
T/C (dose: 100.0 mg/kg/injection, schedule: Q04DX002 (ip), vehicle: saline with Tween-80): 102 % of control
T/C (dose: 200.0 mg/kg/injection, schedule: Q04DX002 (ip), vehicle: saline with Tween-80): 102 % of control
T/C (dose: 400.0 mg/kg/injection, schedule: Q04DX002 (ip), vehicle: saline with Tween-80): 105 % of control

Cc1ccc2c(c1)C(=O)C(CN1CCOCC1)CCO2 (configuration not stated)
T/C (dose: 100.0 mg/kg/injection, schedule: Q04DX003 (ip), vehicle: saline): 100 % of control
T/C (dose: 200.0 mg/kg/injection, schedule: Q04DX003 (ip), vehicle: saline): 102 % of control
T/C (dose: 400.0 mg/kg/injection, schedule: Q04DX003 (ip), vehicle: saline): 96 % of control

NC(N)=N/C(N)=N\c1nn[nH]n1
T/C (dose: 100.0 mg/kg/injection, schedule: Q01DX001 (ip), vehicle: saline): 95 % of control
T/C (dose: 200.0 mg/kg/injection, schedule: Q01DX001 (ip), vehicle: saline): 100 % of control
T/C (dose: 400.0 mg/kg/injection, schedule: Q01DX001 (ip), vehicle: saline): 100 % of control

Nc1ncc(CCCOc2ccccc2)c(=O)[nH]1
T/C (dose: 100.0 mg/kg/injection, schedule: Q01DX001 (ip), vehicle: saline with Tween-80): 90 % of control
T/C (dose: 200.0 mg/kg/injection, schedule: Q01DX001 (ip), vehicle: saline with Tween-80): 90 % of control
T/C (dose: 400.0 mg/kg/injection, schedule: Q01DX001 (ip), vehicle: saline with Tween-80): 90 % of control

CCc1c(OC)c(C#N)c2n(C)c3cc(C)c(C)cc3n2c1=O
T/C [5]: 87 % of control
T/C [6]: 90 % of control
T/C [7]: 93 % of control

CN(/N=C\c1ccccc1)C(N)=S
T/C [3]: 105 % of control
T/C [8]: 111 % of control
T/C [9]: 101 % of control

CCN(CC)C(=NC(C)(C)C)c1ccccc1
T/C (dose: 3.12 mg/kg/injection, schedule: Q01DX009 (ip), vehicle: saline): 101 % of control and 93 % of control and 97 % of control
T/C (dose: 6.25 mg/kg/injection, schedule: Q01DX005 (ip), vehicle: Klucel (hydroxypropylcellulose) (HPC)): 107 % of control
T/C (dose: 6.25 mg/kg/injection, schedule: Q01DX009 (ip), vehicle: saline): 96 % of control and 97 % of control
T/C [1]: 100 % of control
T/C [2]: 107 % of control
T/C [4]: 99 % of control

CCCCCCCOC(=O)c1ccc(O)cc1
T/C [10]: 105 % of control
T/C (dose: 25.0 mg/kg/injection, schedule: Q01DX009 (ip), vehicle: saline with Tween-80): 100 % of control
T/C [11]: 99 % of control and 96 % of control
T/C [12]: 95 % of control

OCCN(CCO)c1cc(/C=C/c2c3ccccc3cc3ccccc23)nc2ccccc12
T/C [11]: 89 % of control
T/C [12]: 93 % of control
T/C [13]: 92 % of control

Nc1cc(Cl)cc2c1-c1ccc(Cl)cc1C2=O
T/C [2]: 96 % of control
T/C [3]: 91 % of control
T/C [8]: 90 % of control
T/C [9]: 89 % of control

C=C1C(=O)C23C(O)C1CCC2C12CCCC(C)(C)C1C(O)C3(O)OC2 (configuration not stated)
T/C (dose: 2.5 mg/kg/injection, schedule: Q01DX005 (ip), vehicle: Klucel (hydroxypropylcellulose) (HPC)): 101 % of control
T/C (dose: 5.0 mg/kg/injection, schedule: Q01DX005 (ip), vehicle: Klucel (hydroxypropylcellulose) (HPC)): 107 % of control
T/C (dose: 10.0 mg/kg/injection, schedule: Q01DX005 (ip), vehicle: Klucel (hydroxypropylcellulose) (HPC)): 108 % of control

COc1ccc2c(n1)c(=NCCCCCCN=c1c3ccc(Cl)cc3n(O)c3ccc(OC)nc13)c1ccc(Cl)cc1n2O
T/C [14]: 116 % of control
T/C [15]: 100 % of control

O=C1SC(=NC2CCCCC2)N(C2CCCCC2)/C1=C1\C(=O)SC(=NC2CCCCC2)N1C1CCCCC1
T/C (dose: 15.0 mg/kg/injection, schedule: Q01DX005 (ip), vehicle: saline with Tween-80): 92 % of control
T/C (dose: 30.0 mg/kg/injection, schedule: Q01DX005 (ip), vehicle: saline with Tween-80): 90 % of control

CCN(CC)C(=O)OC1Cc2ccccc2CCc2ccccc2C1
T/C [14]: 103 % of control
T/C [15]: 101 % of control
T/C (dose: 400.0 mg/kg/injection, schedule: Q04DX003 (ip), vehicle: Klucel (hydroxypropylcellulose) (HPC)): 101 % of control

COC(=O)[C@H]1[C@H]2CCOC1(c1cc(OC)c(OC)c(OC)c1)c1cc3c(cc1[C@H]2O)OCO3
T/C (dose: 4.5 mg/kg/injection, schedule: Q01DX009 (ip), vehicle: Klucel (hydroxypropylcellulose) (HPC)): 102 % of control
T/C (dose: 9.0 mg/kg/injection, schedule: Q01DX009 (ip), vehicle: Klucel (hydroxypropylcellulose) (HPC)): 104 % of control
T/C (dose: 18.0 mg/kg/injection, schedule: Q01DX009 (ip), vehicle: Klucel (hydroxypropylcellulose) (HPC)): 96 % of control
T/C (dose: 36.0 mg/kg/injection, schedule: Q01DX009 (ip), vehicle: Klucel (hydroxypropylcellulose) (HPC)): 100 % of control

COc1cc2ccc3c(c2cc1OC)N(C)C(OC)c1cc2c(cc1-3)OCO2 (configuration not stated)
T/C (dose: 10.0 mg/kg/injection, schedule: Q01DX009 (ip), vehicle: Klucel (hydroxypropylcellulose) (HPC)): 153 % of control
T/C (dose: 40.0 mg/kg/injection, schedule: Q01DX009 (ip), vehicle: Klucel (hydroxypropylcellulose) (HPC)): 173 % of control
T/C (dose: 80.0 mg/kg/injection, schedule: Q01DX009 (ip), vehicle: Klucel (hydroxypropylcellulose) (HPC)): 110 % of control

OC1(c2ccccc2)CSC2=Nc3ccccc3C3CCN1N23 (configuration not stated)
T/C [10]: 108 % of control and 87 % of control
T/C [12]: 122 % of control and 95 % of control
T/C [13]: 99 % of control

CC1CC(=O)Nc2nc(N)ncc21 (configuration not stated)
T/C [5]: 102 % of control
T/C [6]: 106 % of control
T/C [7]: 108 % of control

OCCOc1ccc(OCCO)c2ccccc12
T/C [3]: 103 % of control
T/C [8]: 104 % of control
T/C [9]: 100 % of control

CCCCCCCCCCCC(=O)NC1CC(O[C@H]2C[C@](O)(C(C)=O)Cc3c(O)c4c(c(O)c32)C(=O)c2c(OC)cccc2C4=O)OC(C)C1O (some centres not stated)
T/C (dose: 0.75 mg/kg/injection, schedule: Q01DX009 (ip), vehicle: other): 119 % of control
T/C (dose: 2.0 mg/kg/injection, schedule: Q04DX003 (ip), vehicle: other): 91 % of control
T/C (dose: 4.0 mg/kg/injection, schedule: Q04DX003 (ip), vehicle: other): 107 % of control
T/C (dose: 6.0 mg/kg/injection, schedule: Q01DX009 (ip), vehicle: other): 150 % of control
T/C (dose: 8.0 mg/kg/injection, schedule: Q04DX003 (ip), vehicle: other): 98 % of control
T/C (dose: 12.0 mg/kg/injection, schedule: Q01DX009 (ip), vehicle: other): 158 % of control
T/C (dose: 16.0 mg/kg/injection, schedule: Q04DX003 (ip), vehicle: other): 102 % of control and 111 % of control
T/C (dose: 32.0 mg/kg/injection, schedule: Q04DX003 (ip), vehicle: other): 114 % of control and 120 % of control
T/C (dose: 64.0 mg/kg/injection, schedule: Q04DX003 (ip), vehicle: other): 120 % of control
T/C (dose: 128.0 mg/kg/injection, schedule: Q04DX003 (ip), vehicle: other): 123 % of control
T/C (dose: 256.0 mg/kg/injection, schedule: Q04DX003 (ip), vehicle: other): 100 % of control

COC1/C=C/OC2(C)Oc3c(C)c(O)c4c(O)c(c(/C=N/N5CCCN(C)CC5)c(O)c4c3C2=O)NC(=O)/C(C)=C\C=C\C(C)C(O)C(C)C(O)C(C)C(OC(C)=O)C1C (configuration not stated)
T/C [11]: 104 % of control
T/C [12]: 100 % of control
T/C [13]: 102 % of control

COC(=O)c1ccc(=O)c2nc3/c(=C/O)c(O)cc(=O)c3[nH]c12
T/C (dose: 0.15 mg/kg/injection, schedule: Q04DX003 (ip), vehicle: saline): 95 % of control
T/C (dose: 0.3 mg/kg/injection, schedule: Q01DX009 (ip), vehicle: saline with Tween-80): 90 % of control
T/C (dose: 0.3 mg/kg/injection, schedule: Q04DX003 (ip), vehicle: saline): 100 % of control
T/C (dose: 0.6 mg/kg/injection, schedule: Q04DX003 (ip), vehicle: saline): 109 % of control

— PubChem BioAssay AID330 (DTP/NCI, 2004)
